According to patent US20250221410A1, “SUBSTITUTED 2-C-AZINES AND SALTS THEREOF, AND USE THEREOF AS HERBICIDAL ACTIVE SUBSTANCES” (BAYER AKTIENGESELLSCHAFT, priority 2022, published 2025):

Tests used:
Type in all cases: in vivo
[1] = system: VERPE: Veronica persica; experiment: Post-emergence herbicidal efficacy at 80 g/ha, VERPE; details: visual rating about 3 weeks after treatment vs untreated controls
Method: (§1) Seeds of monocotyledonous and dicotyledonous weeds and crop plants were placed in sandy loam in plastic or organic planting pots, covered with soil and cultivated in a greenhouse under controlled growth conditions. 2 to 3 weeks after sowing, the test plants were treated at the one-leaf stage. The compounds of the invention, formulated in the form of wettable powders (WP) or as emulsion concentrates (EC), were then sprayed onto the green parts of the plants as aqueous suspension or emulsion with addition of 0.5% additive at a water application rate of 600 l/ha (converted). After the test plants had been kept in the greenhouse under optimum growth conditions for about 3 weeks, the activity of the preparations was rated visually in comparison to untreated controls. For example, 100% activity=the plants have died, 0% activity=like control plants. Tables B1 to B10 below show the effects of selected compounds of the general formula (I) according to Table 1 on various harmful plants and an application rate corresponding to 80 g/ha, which were obtained by the experimental procedure mentioned above.

[2] = system: AMARE: Amaranthus retroflexus; experiment: Post-emergence herbicidal efficacy at 80 g/ha, AMARE; details: visual rating about 3 weeks after treatment vs untreated controls
Method: as §1

[3] = system: AMARE: Amaranthus retroflexus; experiment: Pre-emergence herbicide efficacy at 80 g/ha, AMARE; details: scored visually after about 3 weeks
Excerpt: (§2) Seeds of monocotyledonous and dicotyledonous weed plants and crop plants were placed in plastic or organic planting pots and covered with soil. The compounds of the invention, formulated in the form of wettable powders (WP) or as emulsion concentrates (EC), were then applied to the surface of the covering soil as aqueous suspension or emulsion with addition of 0.5% additive at a water application rate equivalent to 600 l/ha. After the treatment, the pots were placed in a greenhouse and kept under good growth conditions for the test plants. After about 3 weeks, the efficacy of the preparations was scored visually in comparison with untreated controls as percentages. For example, 100% activity=the plants have died, 0% activity=like control plants. Tables D1 to D12 below show the effects of selected compounds of the general formula (I) according to Table 1 on various harmful plants and an application rate corresponding to 80 g/ha, which were obtained by the experimental procedure mentioned above.

[4] = system: SETVI: Setaria viridis; experiment: Post-emergence herbicidal efficacy at 1280 g/ha, SETVI; details: visual rating about 3 weeks after treatment vs untreated controls
Method in brief: (§3)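 Greenhouse post-emergence spray: one-leaf stage, 2–3 wk after sowing; WP/EC as aqueous suspension/emulsion + 0.5% additive, 600 L/ha water. Visual % activity vs untreated at ~3 wk; 100% = dead, 0% = as control.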

[5] = system: AMARE: Amaranthus retroflexus; experiment: Post-emergence herbicidal efficacy at 1280 g/ha, AMARE; details: rated visually after about 3 weeks vs untreated controls, 100% = plants have died, 0% = like control plants
Method in brief: as §3

[6] = system: VERPE: Veronica persica; experiment: Pre-emergence herbicide efficacy at 1280 g/ha, VERPE; details: visual scoring vs untreated controls
Method in brief: (§4)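 Weed seeds were sown in sandy loam, covered with soil, and the soil surface was treated with the compound, formulated as wettable powder or emulsion concentrate, in water containing 0.5% additive at 600 L/ha. Plants then grew in the greenhouse for roughly 3 weeks before percentage efficacy was scored by eye against untreated controls.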

[7] = system: ABUTH: Abutilon theophrasti; experiment: Post-emergence herbicidal efficacy at 1280 g/ha, ABUTH; details: rated visually after about 3 weeks vs untreated controls, 100% = plants have died, 0% = like control plants
Method in brief: as §3

[8] = system: SETVI: Setaria viridis; experiment: Pre-emergence herbicide efficacy at 1280 g/ha, SETVI; details: visual scoring vs untreated controls
Method in brief: as §4

[9] = system: DIGSA: Digitaria sanguinalis; experiment: Post-emergence herbicidal efficacy at 1280 g/ha, DIGSA; details: rated visually after about 3 weeks vs untreated controls, 100% = plants have died, 0% = like control plants
Method in brief: as §3

[10] = system: VERPE: Veronica persica; experiment: Post-emergence herbicidal efficacy at 1280 g/ha, VERPE; details: visual rating about 3 weeks after treatment vs untreated controls
Method in brief: as §3

[11] = system: LOLRI: Lolium rigidum; experiment: Pre-emergence herbicide efficacy at 1280 g/ha, LOLRI; details: visual scoring after about 3 weeks vs untreated controls
Excerpt: (§5) Seeds of mono- and dicotyledonous weed plants were placed in plastic pots in sandy loam soil (doubly sown with one species each of mono- or dicotyledonous weed plants per pot) and covered with soil. The compounds of the invention, formulated in the form of wettable powders (WP) or as emulsion concentrates (EC), were then applied to the surface of the covering soil as aqueous suspension or emulsion with addition of 0.5% additive at a water application rate of 600 litres per hectare (converted). After the treatment, the pots were placed in a greenhouse and kept under good growth conditions for the test plants. After about 3 weeks, the efficacy of the preparations was scored visually in comparison with untreated controls as percentages. For example, 100% activity=the plants have died, 0% activity=like control plants. Tables C1 to C12 below show the effects of selected compounds of the general formula (I) according to Table 1 on various harmful plants and at an application rate corresponding to 1280 g/ha, which were obtained by the trial procedure specified above.

[12] = system: POAAN: Poa annua; experiment: Post-emergence herbicidal efficacy at 1280 g/ha, POAAN; details: visual rating about 3 weeks after treatment vs untreated controls
Method in brief: as §3

[13] = system: DIGSA: Digitaria sanguinalis; experiment: Pre-emergence herbicide efficacy at 1280 g/ha, DIGSA; details: visual scoring after about 3 weeks vs untreated controls
Method in brief: as §4

[14] = system: POAAN: Poa annua; experiment: Pre-emergence herbicide efficacy at 1280 g/ha, POAAN; details: visual scoring after about 3 weeks vs untreated controls
Method in brief: as §4

[15] = system: AMARE: Amaranthus retroflexus; experiment: Pre-emergence herbicide efficacy at 1280 g/ha, AMARE; details: visual scoring after about 3 weeks vs untreated controls
Method in brief: as §4

[16] = system: ECHCG: Echinochloa crus-galli; experiment: Pre-emergence herbicide efficacy at 1280 g/ha, ECHCG; details: visual scoring after about 3 weeks vs untreated controls
Method in brief: as §4

[17] = system: ABUTH: Abutilon theophrasti; experiment: Pre-emergence herbicide efficacy at 1280 g/ha, ABUTH; details: visual scoring after about 3 weeks vs untreated controls
Method in brief: as §4

[18] = system: KCHSC: Kochia scoparia; experiment: Post-emergence herbicidal efficacy at 1280 g/ha, KCHSC; details: visual rating about 3 weeks after treatment vs untreated controls
Method in brief: as §3

[19] = system: STEME: Stellaria media; experiment: Pre-emergence herbicide efficacy at 1280 g/ha, STEME; details: visual scoring vs untreated controls
Method in brief: as §4

[20] = system: MATIN: Matricaria inodora; experiment: Pre-emergence herbicide efficacy at 1280 g/ha, MATIN; details: visual scoring after about 3 weeks vs untreated controls
Excerpt: as §5

[21] = system: STEME: Stellaria media; experiment: Post-emergence herbicidal efficacy at 1280 g/ha, STEME; details: visual rating about 3 weeks after treatment vs untreated controls
Method in brief: as §3

[22] = system: KCHSC: Kochia scoparia; experiment: Pre-emergence herbicide efficacy at 1280 g/ha, KCHSC; details: visual scoring after about 3 weeks vs untreated controls
Method in brief: as §4

[23] = system: VERPE: Veronica persica; experiment: Pre-emergence herbicide efficacy at 80 g/ha, VERPE; details: scored visually after about 3 weeks
Excerpt: as §2

[24] = system: ABUTH: Abutilon theophrasti; experiment: Pre-emergence herbicide efficacy at 80 g/ha, ABUTH; details: scored visually after about 3 weeks
Excerpt: as §2

[25] = system: ECHCG: Echinochloa crus-galli; experiment: Post-emergence herbicidal efficacy at 1280 g/ha, ECHCG; details: rated visually after about 3 weeks vs untreated controls, 100% = plants have died, 0% = like control plants
Method in brief: as §3

[26] = system: POLCO; experiment: Pre-emergence herbicide efficacy at 80 g/ha, POLCO; details: Polygonum convolvulus, scored visually after about 3 weeks
Excerpt: as §2

Compound | Post-emergence efficacy against AMARE [2] [%] | Pre-emergence efficacy against AMARE in % [3] [%] | Post-emergence efficacy against SETVI [4] [%] | Post-emergence efficacy at 1280 g/ha against AMARE in % [5] [%] | Pre-emergence efficacy against VERPE in % [6] [%] | Post-emergence efficacy at 1280 g/ha against ABUTH in % [7] [%] | Pre-emergence efficacy against SETVI in % [8] [%] | Post-emergence efficacy at 1280 g/ha against DIGSA in % [9] [%] | Post-emergence efficacy against VERPE [10] [%] | Post-emergence efficacy against POAAN [12] [%] | Pre-emergence efficacy against DIGSA [13] [%] | Pre-emergence efficacy against POAAN [14] [%] | Pre-emergence efficacy against AMARE [15] [%] | Pre-emergence efficacy against ECHCG [16] [%] | Pre-emergence efficacy against ABUTH [17] [%] | Post-emergence efficacy against KCHSC [18] [%] | Pre-emergence efficacy against STEME in % [19] [%] | Pre-emergence efficacy against MATIN [20] [%] | Pre-emergence efficacy against KCHSC [22] [%] | further results
O=S(=O)(CCCC(F)(F)F)Oc1c(F)cccc1Cc1ncc(Cl)cn1 [Example 1-14] | 95 | 90 |  |  |  |  |  |  |  |  |  |  |  |  |  |  |  |  |  | Post-emergence efficacy against VERPE [1]: 95%
Fc1ccc(Oc2ccccc2Cc2ncc(Cl)cn2)cc1 [Example 1-29] |  |  | 90 | 90 | 100 | 90 | 100 | 90 | 100 | 90 | 100 | 100 | 100 | 100 | 100 | 90 | 90 | 90 |  | Pre-emergence efficacy against LOLRI [11]: 100%
N#Cc1cccc(Cc2ncc(Cl)cn2)c1-n1cc(C(F)(F)F)cn1 [Example 1-45] |  | 100 | 90 | 100 | 100 | 90 | 100 | 90 | 100 | 90 | 100 | 90 | 100 | 100 | 100 | 100 | 100 | 90 | 100 | Post-emergence efficacy against STEME [21]: 90%; Pre-emergence efficacy against LOLRI [11]: 90%
Fc1cccc(Oc2ncc(Cl)cn2)c1Cc1ncc(Cl)cn1 [Example 1-51] | 100 | 90 |  | 100 | 100 |  | 100 |  | 100 |  | 100 | 90 | 100 | 90 | 100 | 90 | 100 | 100 | 100 | Post-emergence efficacy against VERPE [1]: 100%; Pre-emergence efficacy against VERPE in % [23]: 80%
Fc1cnc(Oc2cccc(F)c2Cc2ncc(Cl)cn2)nc1 [Example 1-52] | 80 | 100 |  | 100 | 90 |  | 100 |  | 90 |  | 100 | 100 | 100 | 90 | 90 | 90 | 100 | 100 | 100 | Pre-emergence efficacy against ABUTH in % [24]: 90%
Fc1ccc(Sc2ccccc2Cc2ncc(F)cn2)cc1 [Example 1-104] |  |  | 90 | 100 | 100 | 100 | 100 | 100 | 100 | 100 | 100 | 100 | 100 | 100 | 100 | 100 | 100 | 100 |  | Post-emergence efficacy at 1280 g/ha against ECHCG in % [25]: 100%; Post-emergence efficacy against STEME [21]: 100%
Fc1cnc(Cc2cccc(F)c2Oc2ncc(Cl)cn2)nc1 [Example 1-154] | 90 | 100 |  |  |  |  |  |  |  |  |  |  |  |  |  |  |  |  |  | Pre-emergence efficacy against POLCO in % [26]: 80%
